Assay results: BindingDB's records for doi:10.1021/cb300623a (University of Washington, 2013)

Key:
Assay in all cases: Fluorescence Assay
Conditions in all cases: pH 7.5; 25 °C
Ephrin type-A receptor 3 = target: T1, Ephrin type-A receptor 3 (Homo sapiens, UniProt P29320)
T1 sequence (P29320 whole entry): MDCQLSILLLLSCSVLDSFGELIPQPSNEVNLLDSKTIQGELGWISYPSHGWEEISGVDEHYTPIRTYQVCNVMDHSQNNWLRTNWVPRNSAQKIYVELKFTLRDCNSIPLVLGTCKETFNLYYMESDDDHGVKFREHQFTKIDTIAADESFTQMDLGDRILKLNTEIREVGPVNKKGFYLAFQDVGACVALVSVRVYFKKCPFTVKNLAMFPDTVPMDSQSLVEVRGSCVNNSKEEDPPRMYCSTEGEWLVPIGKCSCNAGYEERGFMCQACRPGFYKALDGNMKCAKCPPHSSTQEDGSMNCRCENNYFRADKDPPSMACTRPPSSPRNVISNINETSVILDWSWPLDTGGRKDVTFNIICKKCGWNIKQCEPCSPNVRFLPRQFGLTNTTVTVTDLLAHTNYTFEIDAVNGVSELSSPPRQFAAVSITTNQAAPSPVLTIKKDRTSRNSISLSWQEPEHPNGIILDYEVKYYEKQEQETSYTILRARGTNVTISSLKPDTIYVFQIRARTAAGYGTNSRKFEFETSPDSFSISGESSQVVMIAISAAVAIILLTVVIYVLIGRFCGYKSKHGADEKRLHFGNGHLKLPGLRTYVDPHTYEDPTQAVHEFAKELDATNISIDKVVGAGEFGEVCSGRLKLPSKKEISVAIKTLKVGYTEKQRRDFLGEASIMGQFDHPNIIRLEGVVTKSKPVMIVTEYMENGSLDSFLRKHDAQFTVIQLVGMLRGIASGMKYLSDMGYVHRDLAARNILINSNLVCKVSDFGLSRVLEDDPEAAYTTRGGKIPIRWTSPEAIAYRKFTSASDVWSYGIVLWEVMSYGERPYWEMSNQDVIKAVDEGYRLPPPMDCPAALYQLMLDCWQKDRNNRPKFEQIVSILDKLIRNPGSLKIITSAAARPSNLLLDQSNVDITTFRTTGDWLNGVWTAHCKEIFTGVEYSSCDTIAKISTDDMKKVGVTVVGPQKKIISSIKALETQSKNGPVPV
Description: (§1) Fluorescence assay used for determination of catch and release efficiency.

[1] = target: T2, Interleukin-1 receptor-associated kinase 4 (Homo sapiens, UniProt Q9NWZ3)
T2 sequence (Q9NWZ3 whole entry): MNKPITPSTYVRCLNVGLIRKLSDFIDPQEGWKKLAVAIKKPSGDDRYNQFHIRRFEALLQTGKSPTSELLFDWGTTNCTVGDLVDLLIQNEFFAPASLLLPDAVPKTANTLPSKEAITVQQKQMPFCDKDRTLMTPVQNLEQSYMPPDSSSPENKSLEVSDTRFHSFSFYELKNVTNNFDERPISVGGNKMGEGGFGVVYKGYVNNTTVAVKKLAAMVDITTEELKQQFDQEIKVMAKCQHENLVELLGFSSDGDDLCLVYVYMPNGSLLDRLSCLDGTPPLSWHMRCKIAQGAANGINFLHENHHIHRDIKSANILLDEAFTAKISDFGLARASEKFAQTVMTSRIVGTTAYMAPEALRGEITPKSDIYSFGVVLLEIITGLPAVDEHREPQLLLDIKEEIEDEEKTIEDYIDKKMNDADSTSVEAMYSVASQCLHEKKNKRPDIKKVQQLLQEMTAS
Description: as §1

[2] = target: T3, Mitogen-activated protein kinase kinase kinase 5 (Homo sapiens, UniProt Q99683)
T3 sequence (Q99683 whole entry): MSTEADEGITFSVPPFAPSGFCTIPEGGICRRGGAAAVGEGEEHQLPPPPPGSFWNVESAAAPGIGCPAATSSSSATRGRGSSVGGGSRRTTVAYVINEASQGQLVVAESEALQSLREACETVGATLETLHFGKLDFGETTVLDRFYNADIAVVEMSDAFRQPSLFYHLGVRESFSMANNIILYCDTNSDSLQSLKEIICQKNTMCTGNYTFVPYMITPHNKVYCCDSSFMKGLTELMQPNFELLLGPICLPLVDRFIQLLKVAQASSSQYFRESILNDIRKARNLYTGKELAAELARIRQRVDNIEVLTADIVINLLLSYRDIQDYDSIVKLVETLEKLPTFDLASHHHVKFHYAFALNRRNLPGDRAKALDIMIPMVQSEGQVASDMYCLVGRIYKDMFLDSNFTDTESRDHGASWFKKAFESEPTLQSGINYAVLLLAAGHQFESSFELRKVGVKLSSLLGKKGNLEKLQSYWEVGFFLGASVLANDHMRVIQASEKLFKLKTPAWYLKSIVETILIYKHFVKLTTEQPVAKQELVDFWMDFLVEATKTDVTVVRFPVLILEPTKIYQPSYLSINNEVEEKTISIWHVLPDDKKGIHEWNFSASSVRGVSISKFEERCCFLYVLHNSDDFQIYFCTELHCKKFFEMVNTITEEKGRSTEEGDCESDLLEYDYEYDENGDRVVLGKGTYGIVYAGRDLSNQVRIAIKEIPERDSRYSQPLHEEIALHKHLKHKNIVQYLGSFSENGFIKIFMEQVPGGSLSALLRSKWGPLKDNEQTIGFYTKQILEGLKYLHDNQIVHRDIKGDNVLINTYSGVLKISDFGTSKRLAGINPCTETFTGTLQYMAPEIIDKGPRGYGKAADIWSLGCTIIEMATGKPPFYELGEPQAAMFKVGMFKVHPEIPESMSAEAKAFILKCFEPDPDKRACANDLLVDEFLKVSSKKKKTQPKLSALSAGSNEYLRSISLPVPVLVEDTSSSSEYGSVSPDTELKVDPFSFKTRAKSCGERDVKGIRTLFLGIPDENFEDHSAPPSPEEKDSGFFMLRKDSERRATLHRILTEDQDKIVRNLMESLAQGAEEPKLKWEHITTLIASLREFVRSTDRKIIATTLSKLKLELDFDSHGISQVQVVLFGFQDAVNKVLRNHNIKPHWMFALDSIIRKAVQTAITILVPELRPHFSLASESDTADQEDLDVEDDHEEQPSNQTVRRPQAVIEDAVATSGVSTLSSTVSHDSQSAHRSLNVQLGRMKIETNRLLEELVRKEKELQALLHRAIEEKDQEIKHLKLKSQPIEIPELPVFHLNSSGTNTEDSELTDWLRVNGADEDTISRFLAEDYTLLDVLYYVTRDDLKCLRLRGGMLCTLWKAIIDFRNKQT
Description: as §1

[3] = target: Proto-oncogene tyrosine-protein kinase Src (Homo sapiens, UniProt P12931)
Description: as §1

[4] = target: Serine/threonine-protein kinase 10 (Homo sapiens, UniProt O94804)
Chain of Serine/threonine-protein kinase 10 (O94804 whole entry): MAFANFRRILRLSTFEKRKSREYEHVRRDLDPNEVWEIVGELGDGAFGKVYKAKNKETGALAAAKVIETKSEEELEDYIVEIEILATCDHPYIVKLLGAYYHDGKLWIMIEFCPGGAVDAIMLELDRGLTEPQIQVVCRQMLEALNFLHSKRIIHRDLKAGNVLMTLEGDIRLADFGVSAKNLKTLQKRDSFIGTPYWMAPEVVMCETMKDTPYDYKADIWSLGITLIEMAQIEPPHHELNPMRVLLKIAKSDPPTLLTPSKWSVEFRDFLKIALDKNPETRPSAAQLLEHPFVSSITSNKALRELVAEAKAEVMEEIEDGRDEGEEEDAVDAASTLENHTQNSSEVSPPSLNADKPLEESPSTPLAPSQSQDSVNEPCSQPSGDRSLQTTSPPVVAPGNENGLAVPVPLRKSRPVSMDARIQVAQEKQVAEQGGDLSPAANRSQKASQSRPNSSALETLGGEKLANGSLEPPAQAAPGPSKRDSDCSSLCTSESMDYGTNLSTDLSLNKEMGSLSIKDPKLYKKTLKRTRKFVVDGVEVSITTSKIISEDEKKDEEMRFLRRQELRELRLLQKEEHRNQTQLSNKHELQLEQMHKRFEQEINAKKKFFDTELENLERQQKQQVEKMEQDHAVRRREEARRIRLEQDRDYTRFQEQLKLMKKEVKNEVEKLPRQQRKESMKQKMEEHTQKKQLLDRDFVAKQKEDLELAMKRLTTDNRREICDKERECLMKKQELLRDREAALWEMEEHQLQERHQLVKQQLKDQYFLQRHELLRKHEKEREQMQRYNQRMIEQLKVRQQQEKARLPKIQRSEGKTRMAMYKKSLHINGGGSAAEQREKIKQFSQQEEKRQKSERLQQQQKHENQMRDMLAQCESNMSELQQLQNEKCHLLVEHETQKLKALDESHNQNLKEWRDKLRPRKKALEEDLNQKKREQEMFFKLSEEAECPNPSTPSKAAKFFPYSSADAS
Description: as §1

[5] = target: Serine/threonine-protein kinase PAK 4 (Homo sapiens, UniProt O96013)
Chain of Serine/threonine-protein kinase PAK 4 (O96013 whole entry): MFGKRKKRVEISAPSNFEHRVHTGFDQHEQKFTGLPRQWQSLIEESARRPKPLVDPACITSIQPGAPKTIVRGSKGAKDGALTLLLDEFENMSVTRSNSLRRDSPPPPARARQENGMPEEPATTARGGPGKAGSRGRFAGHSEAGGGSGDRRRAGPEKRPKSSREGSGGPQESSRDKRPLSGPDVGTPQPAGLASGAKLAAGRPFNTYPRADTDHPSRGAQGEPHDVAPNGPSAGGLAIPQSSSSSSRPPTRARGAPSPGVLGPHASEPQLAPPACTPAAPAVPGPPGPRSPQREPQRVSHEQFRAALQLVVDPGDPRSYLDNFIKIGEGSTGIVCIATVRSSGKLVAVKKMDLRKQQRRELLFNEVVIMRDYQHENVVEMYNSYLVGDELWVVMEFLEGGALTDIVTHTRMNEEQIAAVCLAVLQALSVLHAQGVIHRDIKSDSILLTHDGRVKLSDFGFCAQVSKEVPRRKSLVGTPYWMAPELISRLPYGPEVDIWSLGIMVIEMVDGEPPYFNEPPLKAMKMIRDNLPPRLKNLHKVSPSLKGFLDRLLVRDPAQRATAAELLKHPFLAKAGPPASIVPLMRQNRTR
Description: as §1

[6] = target: Serine/threonine-protein kinase PAK 5 (Homo sapiens, UniProt Q9P286)
Chain of Serine/threonine-protein kinase PAK 5 (Q9P286 whole entry): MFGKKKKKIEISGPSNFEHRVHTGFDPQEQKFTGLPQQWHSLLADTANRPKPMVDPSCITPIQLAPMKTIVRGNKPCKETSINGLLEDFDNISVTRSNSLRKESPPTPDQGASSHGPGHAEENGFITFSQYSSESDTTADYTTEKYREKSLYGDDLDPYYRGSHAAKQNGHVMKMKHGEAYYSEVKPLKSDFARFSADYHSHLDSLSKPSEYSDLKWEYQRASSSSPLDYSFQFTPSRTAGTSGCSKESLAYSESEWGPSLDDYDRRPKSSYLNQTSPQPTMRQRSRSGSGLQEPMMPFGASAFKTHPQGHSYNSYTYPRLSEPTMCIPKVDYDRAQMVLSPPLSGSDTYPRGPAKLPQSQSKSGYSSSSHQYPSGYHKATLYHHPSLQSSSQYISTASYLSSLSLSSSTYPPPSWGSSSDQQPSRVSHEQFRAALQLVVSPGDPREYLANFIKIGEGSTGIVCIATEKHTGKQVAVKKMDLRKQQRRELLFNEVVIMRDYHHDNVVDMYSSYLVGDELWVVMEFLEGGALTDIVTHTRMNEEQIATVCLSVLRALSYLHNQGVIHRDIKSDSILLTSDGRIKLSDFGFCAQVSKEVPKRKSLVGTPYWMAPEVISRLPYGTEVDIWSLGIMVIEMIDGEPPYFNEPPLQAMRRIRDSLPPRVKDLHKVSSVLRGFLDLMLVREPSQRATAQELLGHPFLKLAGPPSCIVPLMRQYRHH
Description: as §1

[7] = target: Tyrosine-protein kinase ABL1 (Homo sapiens, UniProt P00519)
Chain of Tyrosine-protein kinase ABL1 (P00519 whole entry): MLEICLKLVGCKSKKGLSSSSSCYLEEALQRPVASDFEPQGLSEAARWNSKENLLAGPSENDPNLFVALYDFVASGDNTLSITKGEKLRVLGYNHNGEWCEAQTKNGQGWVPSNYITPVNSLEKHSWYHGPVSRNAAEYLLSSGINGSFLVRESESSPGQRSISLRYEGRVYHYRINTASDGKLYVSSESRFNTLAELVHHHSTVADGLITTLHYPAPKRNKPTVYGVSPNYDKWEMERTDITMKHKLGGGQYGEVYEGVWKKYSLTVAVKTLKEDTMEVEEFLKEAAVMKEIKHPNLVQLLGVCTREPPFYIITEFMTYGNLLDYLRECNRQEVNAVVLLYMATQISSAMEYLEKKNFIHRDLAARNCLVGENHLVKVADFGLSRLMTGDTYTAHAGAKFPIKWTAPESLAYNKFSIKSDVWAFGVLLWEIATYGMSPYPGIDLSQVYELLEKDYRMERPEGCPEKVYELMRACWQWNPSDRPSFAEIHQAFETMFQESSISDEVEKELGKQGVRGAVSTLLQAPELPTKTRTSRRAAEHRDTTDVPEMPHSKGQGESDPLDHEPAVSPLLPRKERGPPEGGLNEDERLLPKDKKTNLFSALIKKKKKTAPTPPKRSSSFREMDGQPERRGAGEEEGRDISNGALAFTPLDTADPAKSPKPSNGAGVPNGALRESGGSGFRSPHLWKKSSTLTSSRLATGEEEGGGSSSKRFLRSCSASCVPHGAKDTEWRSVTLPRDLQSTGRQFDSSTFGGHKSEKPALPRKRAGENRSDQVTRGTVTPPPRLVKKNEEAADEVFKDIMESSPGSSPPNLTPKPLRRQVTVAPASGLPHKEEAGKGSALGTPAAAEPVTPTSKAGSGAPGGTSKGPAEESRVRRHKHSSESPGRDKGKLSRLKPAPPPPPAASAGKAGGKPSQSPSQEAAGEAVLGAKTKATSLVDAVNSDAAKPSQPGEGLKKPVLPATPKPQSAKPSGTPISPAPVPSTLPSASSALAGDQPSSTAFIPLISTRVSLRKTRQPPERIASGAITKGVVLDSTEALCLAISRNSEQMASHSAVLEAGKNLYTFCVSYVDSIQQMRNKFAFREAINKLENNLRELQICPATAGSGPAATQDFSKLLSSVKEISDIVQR
Description: as §1

[8] = target: Tyrosine-protein kinase CSK (Homo sapiens, UniProt P41240)
Chain of Tyrosine-protein kinase CSK (P41240 whole entry): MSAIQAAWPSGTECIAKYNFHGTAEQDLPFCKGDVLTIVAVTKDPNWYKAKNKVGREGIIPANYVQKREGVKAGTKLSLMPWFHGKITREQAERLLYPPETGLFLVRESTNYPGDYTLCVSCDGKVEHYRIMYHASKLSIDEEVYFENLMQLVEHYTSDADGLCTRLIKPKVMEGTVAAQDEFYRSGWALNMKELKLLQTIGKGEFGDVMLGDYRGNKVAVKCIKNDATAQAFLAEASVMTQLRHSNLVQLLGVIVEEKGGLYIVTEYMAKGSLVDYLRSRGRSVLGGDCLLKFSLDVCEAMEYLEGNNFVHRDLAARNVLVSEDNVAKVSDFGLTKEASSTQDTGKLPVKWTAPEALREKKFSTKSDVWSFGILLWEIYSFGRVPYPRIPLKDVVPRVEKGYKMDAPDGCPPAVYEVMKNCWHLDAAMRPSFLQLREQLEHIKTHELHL
Description: as §1

[9] = target: Tyrosine-protein kinase HCK (Homo sapiens, UniProt P08631)
Chain of Tyrosine-protein kinase HCK (P08631 whole entry): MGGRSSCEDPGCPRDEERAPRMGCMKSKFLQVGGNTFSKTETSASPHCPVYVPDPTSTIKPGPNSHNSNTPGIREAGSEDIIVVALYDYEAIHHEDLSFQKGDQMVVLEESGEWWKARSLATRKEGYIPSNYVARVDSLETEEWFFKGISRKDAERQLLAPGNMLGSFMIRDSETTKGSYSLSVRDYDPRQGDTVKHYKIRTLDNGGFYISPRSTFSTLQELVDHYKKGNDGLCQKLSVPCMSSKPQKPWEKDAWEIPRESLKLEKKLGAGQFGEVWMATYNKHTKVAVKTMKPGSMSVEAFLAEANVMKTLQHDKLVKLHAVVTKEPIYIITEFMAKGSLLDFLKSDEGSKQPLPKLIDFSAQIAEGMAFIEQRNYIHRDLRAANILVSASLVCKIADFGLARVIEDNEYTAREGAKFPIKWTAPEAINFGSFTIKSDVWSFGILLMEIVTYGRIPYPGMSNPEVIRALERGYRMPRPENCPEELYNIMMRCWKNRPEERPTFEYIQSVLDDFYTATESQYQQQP
Description: as §1

[10] = target: Tyrosine-protein kinase Lck (Homo sapiens, UniProt P06239)
Chain of Tyrosine-protein kinase Lck (P06239 whole entry): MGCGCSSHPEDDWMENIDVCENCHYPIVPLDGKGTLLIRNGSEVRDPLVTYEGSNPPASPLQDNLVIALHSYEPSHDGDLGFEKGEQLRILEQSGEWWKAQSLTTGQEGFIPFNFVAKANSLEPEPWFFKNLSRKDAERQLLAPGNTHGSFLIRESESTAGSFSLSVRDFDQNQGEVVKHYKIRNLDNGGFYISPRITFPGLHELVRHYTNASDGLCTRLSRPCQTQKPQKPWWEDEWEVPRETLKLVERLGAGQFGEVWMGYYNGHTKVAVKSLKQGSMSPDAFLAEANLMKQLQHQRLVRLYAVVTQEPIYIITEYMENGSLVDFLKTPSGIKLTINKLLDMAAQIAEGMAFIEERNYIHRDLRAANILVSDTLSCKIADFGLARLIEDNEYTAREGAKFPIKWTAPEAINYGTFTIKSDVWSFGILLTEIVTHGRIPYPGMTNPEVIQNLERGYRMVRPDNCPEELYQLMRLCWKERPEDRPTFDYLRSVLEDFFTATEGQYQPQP
Description: as §1

## Cc1ccc(NC(=O)c2cccc(C(F)(F)F)c2)cc1-c1ccc2nc(Nc3ccc(OCCN)cc3)ncc2c1 [Kinase inhibitor, 5]
Ephrin type-A receptor 3
  IC50: < 10 nM
[1]
  IC50: > 10000 nM
[2]
  IC50: > 10000 nM
[3]
  IC50: < 2 nM
[4]
  IC50: < 10 nM
[5]
  IC50: > 10000 nM
[6]
  IC50: > 10000 nM
[7]
  IC50: < 2 nM
[8]
  IC50: 8.4 nM
[9]
  IC50: < 0.5 nM
[10]
  IC50: < 2 nM
